Where two headings read alike, the source gives them in different places.
Experiments:
[1] = system: IFNB, CXCL10, IFIT3, ISG15, IRF7 and OAS1; assay: Gene expression analysis by real-time quantitative PCR in THP-1 cells; format: cell-based, Human; conditions: with cGAMP (1 μg/ml), 6 hours, FIG. 4
Description: To confirm gene expression, THP-1 cells were placed in a 24-well plate (SPL) and treated with the compound of the present invention and cGAMP (1 μg/ml) for 6 hours. After culturing, RNA was extracted from the cells using NucleoSpin RNA Plus (MN). mRNA expression levels of IFNB, CXCL10, IFIT3, ISG15, IRF7 and OAS1 were measured by real-time qPCR (CFX96 Real-Time PCR Detection System, Bio-Rad) using IQ SYBR Green Supermix (Bio-Rad). GAPDH was used as a housekeeping gene to normalize cytokine mRNA levels.

[2] = PK profiles after IV and PO administration to BALB/c mice; format: in vivo; conditions: BALB/c, mouse, blood; for concentration at 0.5 h: 0.50 h; for AUC(0-t): read-out: AUClast AUC(0-t); for C0: read-out: C0; for Cmax: read-out: Cmax; for MRT inf: read-out: MRTINF_obs MRT(0-∞); for MRT last: read-out: MRTlast MRT(0-t)
Description: The pharmacokinetics and oral bioavailability of Compound 42 were investigated in mice following single intravenous (IV) injection and oral administration (PO).

[3] = iv, 5 mg/kg, IV 5 mg/kg, individual animals 101-103, read-out: concentration in blood
[4] = iv, 5 mg/kg, IV 5 mg/kg, mean, read-out: concentration in blood, Mean IV
[5] = iv, 5 mg/kg, IV 5.0 mg/kg, individual animals
[6] = iv, 5 mg/kg, IV 5.0 mg/kg, mean n=3
[7] = po, 20 mg/kg, PO 20 mg/kg, individual animals 201-203, read-out: concentration in blood
[8] = po, 20 mg/kg, PO 20 mg/kg, mean, read-out: concentration in blood, Mean PO

CC(=O)c1ccc(-c2cc(C(=O)c3ccc(C(F)(F)F)cc3)n3ccccc23)cc1 [Compound 42]
cGAMP-induced expression of interferon-stimulated genes (IFN-beta, IP-10, ISG15, IRF7, IFIT3, OAS1) [1]: significantly increased | bioavailability ([2]; 20 mg/kg, PO administration of 20 mpk): ~18% | concentration at 0.083 h [2, 3]: 2590 ng/mL | concentration at 0.083 h [2, 4]: 2750 ng/mL | concentration at 0.25 h [2, 3]: 1520 ng/mL | concentration at 0.25 h [2, 4]: 1420 ng/mL | concentration at 0.5 h [2, 3]: 803 ng/mL | concentration at 0.5 h [2, 4]: 820 ng/mL | concentration at 1 h [2, 3]: 379 ng/mL | concentration at 1 h [2, 4]: 350 ng/mL | concentration at 4 h [2, 3]: 97.9 ng/mL | concentration at 4 h [2, 4]: 107 ng/mL | concentration at 24 h [2, 3]: 29.2 ng/mL | concentration at 24 h [2, 4]: 34.9 ng/mL | AUC(0-inf) ([2]; iv, 5 mg/kg, IV 5.0 mg/kg, individual animals, read-out: AUCINF_obs AUC(0-∞)): 3420 ng·h/mL | AUC(0-t) [2, 5]: 3160 ng·h/mL | C0 [2, 5]: 3380 ng/mL | clearance ([2]; iv, 5 mg/kg, IV 5.0 mg/kg, individual animals, read-out: Cl_obs Cl (converted)): 24.4 mL/min/kg | Cmax [2, 5]: 2590 ng/mL | half-life ([2]; iv, 5 mg/kg, IV 5.0 mg/kg, individual animals, read-out: HL_Lambda_z T1/2 (converted)): 6.03 h | MRT inf [2, 5]: 6.07 h | MRT last [2, 5]: 3.93 h | Vd ([2]; iv, 5 mg/kg, IV 5.0 mg/kg, individual animals, read-out: Vss_obs Vss): 8.88 L/kg | Vd ([2]; iv, 5 mg/kg, IV 5.0 mg/kg, individual animals, read-out: Vz_obs Vz): 12.7 L/kg | AUC(0-inf) ([2]; iv, 5 mg/kg, IV 5.0 mg/kg, mean n=3, read-out: AUCINF_obs AUC(0-∞)): 3700 ng·h/mL | AUC(0-t) [2, 6]: 3300 ng·h/mL | C0 [2, 6]: 3830 ng/mL | clearance ([2]; iv, 5 mg/kg, IV 5.0 mg/kg, mean n=3, read-out: Cl_obs Cl (converted)): 22.7 mL/min/kg | Cmax [2, 6]: 2750 ng/mL | half-life ([2]; iv, 5 mg/kg, IV 5.0 mg/kg, mean n=3, read-out: HL_Lambda_z T1/2 (converted)): 7.76 h | MRT inf [2, 6]: 7.6 h | MRT last [2, 6]: 4.27 h | Vd ([2]; iv, 5 mg/kg, IV 5.0 mg/kg, mean n=3, read-out: Vss_obs Vss): 10.2 L/kg | Vd ([2]; iv, 5 mg/kg, IV 5.0 mg/kg, mean n=3, read-out: Vz_obs Vz): 15 L/kg | AUC(0-inf) ([2]; iv, 5 mg/kg, IV administration of 5 mg/kg (mpk), read-out: AUC∞): 3700 ng·h/mL | Cmax ([2]; iv, 5 mg/kg, IV administration of 5 mg/kg (mpk)): 2750 ng/mL | half-life ([2]; iv, 5 mg/kg, IV administration of 5 mg/kg (mpk), read-out: half-life (converted)): ~7.76 h | clearance ([2]; iv, 5 mg/kg, IV administration, read-out: mean blood clearance): 22.7 mL/min/kg | Vd ([2]; iv, 5 mg/kg, IV administration, read-out: mean volume of distribution at steady state (Vss)): 10.2 L/kg | concentration at 0.25 h [2, 7]: 75.3 ng/mL | concentration at 0.25 h [2, 8]: 89.9 ng/mL | concentration at 0.5 h [2, 7]: 139 ng/mL | concentration at 0.5 h [2, 8]: 156 ng/mL | concentration at 1 h [2, 7]: 211 ng/mL | concentration at 1 h [2, 8]: 225 ng/mL | concentration at 3 h [2, 7]: 149 ng/mL | concentration at 3 h [2, 8]: 161 ng/mL | concentration at 6 h [2, 7]: 98.7 ng/mL | concentration at 6 h [2, 8]: 111 ng/mL
